In brackets after ≈: the same amount, converted by molar mass. Values belong to the compound of their own block, whether it stands above or below them.
Experiments:
Assay in all cases: ≥ marks a high value that may be exact or a test limit, other limits are often not marked, values filed in µg/mL are converted to µM
[1] = tested on: Escherichia coli CCT 1371
[2] = tested on: Pseudomonas aeruginosa ATCC 27853
[3] = tested on: Staphylococcus aureus ATCC 6535
[4] = tested on: Staphylococcus saprophyticus
Bacillus subtilis DELTA = tested on: Bacillus subtilis DELTA
Candida parapsilosis = tested on: Candida parapsilosis
[5] = tested on: Escherichia coli DH5alpha
[6] = tested on: Pseudomonas aeruginosa PAO1
[7] = tested on: Zymomonas mobilis ATCC 10988
[8] = tested on: Candida albicans ATCC 10231
[9] = tested on: Candida glabrata ATCC 2001
Candida krusei ATCC 6258 = tested on: Candida krusei ATCC 6258
[10] = tested on: Candida parapsilosis ATCC 90018
[11] = tested on: Candida tropicalis ATCC 750
[12] = tested on: Escherichia coli ATCC 25922
[13] = tested on: Staphylococcus aureus ATCC 29213
Aureobasidium pullulans = tested on: Aureobasidium pullulans
Bacillus megaterium = tested on: Bacillus megaterium
[14] = tested on: Bacillus subtilis ATCC 23857
[15] = tested on: Corynebacterium glutamicum ATCC 13032
Micrococcus luteus = tested on: Micrococcus luteus
[16] = tested on: Staphylococcus aureus ATCC 9144
[17] = tested on: Candida albicans ATCC 14053
[18] = tested on: Candida parapsilosis ATCC 22019
Escherichia coli = tested on: Escherichia coli
[19] = tested on: Salmonella enterica subsp. enterica serovar Enteritidis
Salmonella sp. = tested on: Salmonella sp.
[20] = tested on: Staphylococcus aureus ATCC 43300
Yersinia enterocolitica = tested on: Yersinia enterocolitica
[21] = tested on: Bacillus subtilis MTCC 2763
[22] = tested on: Escherichia coli MTCC 723
[23] = tested on: Pseudomonas aeruginosa MTCC 2295
[24] = tested on: Staphylococcus aureus ATCC BAA-1720
[25] = tested on: Staphylococcus aureus MTCC 3160
[26] = tested on: Staphylococcus epidermidis ATCC 51625
[27] = tested on: Candida albicans FRR 5580
[28] = tested on: Pseudomonas aeruginosa ATCC 9027
[29] = tested on: Bifidobacterium longum subsp. infantis
Staphylococcus aureus = tested on: Staphylococcus aureus

SMILES: CC[C@H](C)[C@H](NC(=O)[C@H](CO)NC(=O)[C@@H](NC(=O)[C@H](CCCCN)NC(=O)[C@H](Cc1ccccc1)NC(=O)[C@@H]1CCCN1C(=O)[C@@H](N)CCC(=O)O)[C@@H](C)CC)C(=O)N[C@@H](Cc1cnc[nH]1)C(=O)N[C@@H](CC(C)C)C(N)=O [EPFKISIHL]
MIC [1]: 13.8 µM (≈ 15 µg/mL)
MIC [2]: 27.7 µM (≈ 30 µg/mL)
MIC [3]: 27.7 µM (≈ 30 µg/mL)
MIC [4]: 27.7 µM (≈ 30 µg/mL)

SMILES: CC[C@H](C)[C@H](NC(=O)[C@H](CC(C)C)NC(=O)[C@H](CCC(N)=O)NC(=O)[C@@H](NC(=O)[C@@H](NC(=O)[C@H](CCCN=C(N)N)NC(=O)[C@H](CCCCN)NC(=O)[C@H](Cc1ccccc1)NC(C)=O)[C@@H](C)CC)C(C)C)C(=O)N[C@@H](CCCCN)C(=O)N[C@@H](CC(=O)O)C(=O)N[C@@H](Cc1ccccc1)C(=O)N[C@@H](CC(C)C)C(=O)N[C@@H](CCCN=C(N)N)C(N)=O [FKRIVQLIKDFLR]
MIC (Bacillus subtilis DELTA): 11.9 µM (≈ 20.5 µg/mL)
MIC (Candida parapsilosis): ≥ 59.7 µM
MIC [5]: ≥ 59.7 µM
MIC [6]: 59.7 µM (≈ 102 µg/mL)
MIC [7]: ≥ 59.7 µM

SMILES: CC[C@H](C)[C@H](NC(=O)CN)C(=O)N[C@@H](CC(C)C)C(=O)N[C@@H](CC(=O)O)C(=O)N[C@H](C(=O)N[C@@H](CCCCN)C(=O)N[C@@H](CC(N)=O)C(=O)N[C@@H](CCCCN)C(=O)N[C@H](C(=O)N[C@@H](CO)C(=O)N[C@@H](CC(N)=O)C(=O)N[C@@H](CC(C)C)C(=O)N[C@@H](Cc1ccccc1)C(=O)N[C@@H](CCCCN)C(=O)N[C@@H](CCCCN)C(=O)N[C@H](C(=O)N[C@@H](CCCCN)C(=O)NCC(=O)N[C@@H](CCC(=O)O)C(=O)N[C@@H](CCCCN)C(N)=O)[C@@H](C)CC)C(C)C)[C@@H](C)CC [GILDIKNKVSNLFKKIKGEK]
MIC [8]: 250 µM (≈ 568 µg/mL)
MIC [9]: ≥ 500 µM
MIC (Candida krusei ATCC 6258): ≥ 125 µM
MIC [10]: ≥ 500 µM
MIC [11]: ≥ 500 µM
MIC [12]: > 130 µM
MIC [2]: > 130 µM
MIC [13]: > 130 µM

SMILES: CC[C@H](C)[C@H](N)C(=O)N[C@@H](CC(=O)O)C(=O)N[C@@H](Cc1c[nH]c2ccccc12)C(=O)N[C@@H](Cc1cnc[nH]1)C(=O)N[C@@H](Cc1cnc[nH]1)C(=O)N[C@@H](CC(C)C)C(=O)N[C@@H](CC(C)C)C(=O)N[C@@H](CC(=O)O)C(=O)N[C@@H](C)C(=O)N[C@@H](C)C(=O)N[C@@H](Cc1cnc[nH]1)C(=O)N[C@@H](CCC(N)=O)C(=O)N[C@H](C(=O)N[C@@H](CC(C)C)C(N)=O)[C@@H](C)CC [IDWHHLLDAAHQIL]
MIC [17]: ≥ 64 µM
MIC [9]: 16 µM (≈ 26.9 µg/mL)
MIC (Candida krusei ATCC 6258): ≥ 32 µM
MIC [18]: ≥ 64 µM

SMILES: CC[C@H](C)[C@H](NC(=O)[C@H](CCC(N)=O)NC(=O)[C@H](C)NC(=O)[C@H](Cc1cnc[nH]1)NC(=O)[C@@H]1CCCN1C(=O)[C@H](CCCN=C(N)N)NC(=O)[C@@H](NC(=O)[C@@H](NC(=O)[C@H](C)NC(=O)[C@@H]1CCCN1C(=O)[C@H](CC(N)=O)NC(=O)[C@H](C)NC(=O)[C@@H](N)Cc1ccc(O)cc1)C(C)C)C(C)C)C(=O)N1CCC[C@H]1C(=O)N[C@@H](CCC(N)=O)C(=O)N[C@@H](CCCN=C(N)N)C(=O)O [YANPAVVRPHAQIPQR]
MIC [29]: ≥ 1650 µM
MIC (Escherichia coli): > 1650 µM
MIC (Staphylococcus aureus): > 1650 µM

Now from value to compound:

MIC (Aureobasidium pullulans): ≥ 52.7 µM
MIC (Bacillus megaterium): 3.29 µM (≈ 3.9 µg/mL)
MIC [14]: ≥ 105 µM
MIC [8]: 52.7 µM (≈ 62.4 µg/mL)
MIC [15]: 3.29 µM (≈ 3.9 µg/mL)
MIC [12]: > 211 µM
MIC (Micrococcus luteus): ≥ 105 µM
MIC [2]: > 211 µM
MIC [16]: ≥ 211 µM
SMILES: C[C@H](NC(=O)[C@H](CCCCN)NC(=O)[C@H](Cc1c[nH]c2ccccc12)NC(=O)[C@H](Cc1c[nH]c2ccccc12)NC(=O)CNC(=O)[C@@H]1CCCN1C(=O)[C@H](CCCCN)NC(=O)[C@H](CCCCN)NC(=O)CN)C(=O)N[C@@H](CCCCN)C(N)=O [GKKPGWWKAK]

MIC [12]: > 40.4 µM
MIC (Escherichia coli): > 40.4 µM
MIC [19]: ≥ 40.4 µM
MIC (Salmonella sp.): ≥ 40.4 µM
MIC [13]: > 40.4 µM
MIC [20]: > 40.4 µM
MIC (Yersinia enterocolitica): ≥ 40.4 µM
SMILES: CC[C@H](C)[C@H](NC(=O)[C@H](CCCN=C(N)N)NC(=O)[C@H](CCCN=C(N)N)NC(=O)[C@@H](NC(=O)[C@@H](NC(=O)[C@H](CCC(N)=O)NC(=O)[C@@H](N)CCCN=C(N)N)[C@@H](C)CC)[C@@H](C)CC)C(=O)N[C@@H](CCC(N)=O)C(=O)N[C@@H](CCCN=C(N)N)C(N)=O [RQIIRRIQR]

MIC [21]: ≥ 81.5 µM
MIC [22]: ≥ 87.3 µM
MIC [23]: ≥ 116 µM
MIC [24]: 29.1 µM (≈ 25 µg/mL)
MIC [25]: 29.1 µM (≈ 25 µg/mL)
MIC [26]: 23.3 µM (≈ 20 µg/mL)
SMILES: NC(=O)[C@H](CCCN=C(N)N)NC(=O)[C@H](Cc1c[nH]c2ccccc12)NC(=O)[C@H](Cc1c[nH]c2ccccc12)NC(=O)[C@H](CCCN=C(N)N)NC(=O)[C@@H](N)CCCN=C(N)N [RRWWR]

MIC [27]: ≥ 54.5 µM
MIC [28]: 27.2 µM (≈ 32 µg/mL)
SMILES: NCCCC[C@H](NC(=O)[C@H](Cc1c[nH]c2ccccc12)NC(=O)[C@H](Cc1c[nH]c2ccccc12)NC(=O)[C@H](CCCCN)NC(=O)[C@H](Cc1c[nH]c2ccccc12)NC(=O)[C@H](Cc1c[nH]c2ccccc12)NC(=O)[C@@H](N)CCCN=C(N)N)C(N)=O [RWWKWWK]

— DBAASP
